# In publication PMC8900826, “Structural basis for substrate recognition in the Phytolacca americana glycosyltransferase PaGT3” (Acta Crystallographica. Section D, Structural Biology, 2022):
# Assays:
# Experiment in all cases: X-ray crystal structure, […] A
# Format in all cases: binding
# PaGT3 [1] = target: T1, PaGT3 (Phytolacca americana, UniProt B5MGN9); settings: soaked into PaGT3/UDP-2FGlc crystals; acceptor site, molecule B only, occupancy 0.8
# T1 construct: full length; N-terminal His6 tag with TEV site, cut off (one Gly left before Met1); expressed in E. coli BL21 (DE3); two molecules in the asymmetric unit
# PaGT3 [2] = target: T1, PaGT3; settings: co-crystallized with UDP-2FGlc; acceptor site, both molecules, two different positions
# PaGT3 [3] = target: T1, PaGT3; settings: co-crystallized without acceptor; sugar-donor site; non-transferred donor analogue; also bound in 7vej and 7vek
# T1 sequence (B5MGN9 entry or part of it): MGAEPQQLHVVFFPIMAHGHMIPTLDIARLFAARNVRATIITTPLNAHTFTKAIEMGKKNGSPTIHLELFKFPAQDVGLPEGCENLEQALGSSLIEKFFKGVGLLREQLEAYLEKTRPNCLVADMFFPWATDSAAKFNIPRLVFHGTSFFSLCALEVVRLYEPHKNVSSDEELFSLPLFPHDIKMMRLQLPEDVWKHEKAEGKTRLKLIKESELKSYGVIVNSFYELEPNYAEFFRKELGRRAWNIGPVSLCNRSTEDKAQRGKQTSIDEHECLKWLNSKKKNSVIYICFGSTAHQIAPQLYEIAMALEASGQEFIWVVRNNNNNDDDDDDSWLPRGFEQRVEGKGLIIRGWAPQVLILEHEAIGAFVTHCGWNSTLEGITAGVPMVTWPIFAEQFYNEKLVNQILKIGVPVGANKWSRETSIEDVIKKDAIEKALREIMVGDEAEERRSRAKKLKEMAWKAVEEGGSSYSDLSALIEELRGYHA
compound,measurement,setting,value
COc1cc(CNC(=O)CCCC/C=C/C(C)C)ccc1O [capsaicin],"X-ray crystal structure, 2.60 A",PaGT3 [1],The calculated polder map confirms the occupancy of capsaicin in PaGT3 molecule B.
O=c1c(O)c(-c2ccc(O)cc2)oc2cc(O)cc(O)c12 [kaempferol],"X-ray crystal structure, 1.85 A",PaGT3 [2],The electron density of kaempferol in both molecules of the enzyme
O=c1ccn([C@@H]2O[C@H](COP(=O)(O)OP(=O)(O)O[C@H]3O[C@H](CO)[C@@H](O)[C@H](O)[C@H]3F)[C@@H](O)[C@H]2O)c(=O)[nH]1 [UDP-2FGlc],"X-ray crystal structure, 2.20 A",PaGT3 [3],The crystal structure of PaGT3 with the sugar-donor analogue UDP-2FGlc was determined
